# Measurements reported in patent US12240853B2, “Compounds useful in HIV therapy” (GlaxoSmithKline Intellectual Property (No.2) Limited, priority 2019, dated 2025).
# Where two headings read alike, the source gives them in different places.
# Test: Example 18 cynomolgus monkey PK study (SC and IM)
# Assay type: in vivo, cynomolgus monkeys
# Description: Example 18 referenced herein was made in accordance with Synthesis B. Six male cynomolgus monkeys (+1 spare) were selected from the Testing Facility's colony of non-naïve animals. The animals were assigned to the study based on acceptable health as determined by a Testing Facility veterinarian. Six animals were selected and placed into two groups of three animals each. Fasting of the animals before or after dosing was not required.
# […] […] The animals were manually restrained for dosing and were not sedated. The dose sites were clipped of hair and wiped with alcohol before dosing. All dosing was performed as detailed in the study protocol and was completed without incident.
# Blood samples were collected from the study animals as detailed in the sample collection Table 39 below.
# Blood samples were collected by venipuncture of a cephalic vein. For PK, blood was transferred to a blood collection tube containing NaF/Na2EDTA anticoagulant, mixed by inversion, and maintained on wet ice until processing. The blood samples were centrifuged at 2200×g for 10 minutes at 5° C. to isolate plasma. The resulting plasma samples were transferred to individual polypropylene tubes in a 96-well plate format and immediately placed on dry ice until storage at nominally −20° C. prior to shipment for analysis.
# The PK plasma samples were analyzed approximately every two weeks by the Testing Facility to determine the concentration of Example 18 (prodrug) and parent using an LC-MS/MS Research Grade Assay (RGA-1) with sensitivity to 0.1 ng/mL. Following interim review of sample analysis data, analysis for Example 18 (prodrug) was discontinued after the Day 57 sample collections. The bioanalytical report and sample concentration data are presented in Tables 40 and 41, and mean concentration-time profiles are shown in FIGS. 29 and 30
structure (smiles),measurement,setting,value
"C#C[C@]1(COC(=O)CCCCCCCCC)O[C@@H](n2cnc3c(N)nc(F)nc32)C[C@@H]1OC(=O)CCCCCCCCC [Example 18, (2R,3S,5R)-5-(6-amino-2-fluoro-9H-purin-9-yl)-2-((decanoyloxy)methyl)-2-ethynyltetrahydrofuran-3-yl Decanoate]",Example 18 plasma concentrations,"SC equivalent of EFdA, Monkey 1001, 36 days","BQL (BQL—Below Quantitation Limit, <0.100 ng/mL)"
same,Example 18 plasma concentrations,"SC equivalent of EFdA, Monkey 1001, 39 days","BQL (BQL—Below Quantitation Limit, <0.100 ng/mL)"
same,Example 18 plasma concentrations,"SC equivalent of EFdA, Monkey 1001, 50 days","BQL (BQL—Below Quantitation Limit, <0.100 ng/mL)"
same,EFdA plasma concentrations,"SC equivalent of EFdA, Monkey 1002, 0.042 days","BQL (BQL—Below Quantitation Limit, <0.100 ng/mL)"
same,Example 18 plasma concentrations,"SC equivalent of EFdA, Monkey 1002, 22 days","BQL (BQL—Below Quantitation Limit, <0.100 ng/mL)"
same,Example 18 plasma concentrations,"SC equivalent of EFdA, Monkey 1002, 32 days","BQL (BQL—Below Quantitation Limit, <0.100 ng/mL)"
same,Example 18 plasma concentrations,"SC equivalent of EFdA, Monkey 1002, 39 days","BQL (BQL—Below Quantitation Limit, <0.100 ng/mL)"
same,Example 18 plasma concentrations,"SC equivalent of EFdA, Monkey 1002, 50 days","BQL (BQL—Below Quantitation Limit, <0.100 ng/mL)"
same,Example 18 plasma concentrations,"SC equivalent of EFdA, Monkey 1002, 53 days","BQL (BQL—Below Quantitation Limit, <0.100 ng/mL)"
same,Example 18 plasma concentrations,"SC equivalent of EFdA, Monkey 1002, 57 days","BQL (BQL—Below Quantitation Limit, <0.100 ng/mL)"
same,EFdA plasma concentrations,"SC equivalent of EFdA, Monkey 1003, 0.021 days","BQL (BQL—Below Quantitation Limit, <0.100 ng/mL)"
same,EFdA plasma concentrations,"SC, Mean, 0.021 days","BQL (BQL—Below Quantitation Limit, <0.100 ng/mL)"
same,Example 18 plasma concentrations,"SC, Mean, 17 days","BQL (BQL—Below Quantitation Limit, <0.100 ng/mL)"
same,EFdA plasma concentrations,"SC, Monkey 1001, 0.021 days","BQL (BQL—Below Quantitation Limit, <0.100 ng/mL)"
same,Example 18 plasma concentrations,"SC, Monkey 1001, 25 days","BQL (BQL—Below Quantitation Limit, <0.100 ng/mL)"
same,Example 18 plasma concentrations,"SC, Monkey 1001, 57 days","BQL (BQL—Below Quantitation Limit, <0.100 ng/mL)"
same,Example 18 plasma concentrations,"SC, Monkey 1002, 17 days","BQL (BQL—Below Quantitation Limit, <0.100 ng/mL)"
same,Example 18 plasma concentrations,"SC, Monkey 1002, 19 days","BQL (BQL—Below Quantitation Limit, <0.100 ng/mL)"
same,Example 18 plasma concentrations,"SC, Monkey 1002, 25 days","BQL (BQL—Below Quantitation Limit, <0.100 ng/mL)"
same,Example 18 plasma concentrations,"SC, Monkey 1002, 36 days","BQL (BQL—Below Quantitation Limit, <0.100 ng/mL)"
same,Example 18 plasma concentrations,"SC, Monkey 1002, 46 days","BQL (BQL—Below Quantitation Limit, <0.100 ng/mL)"
same,EFdA plasma concentrations,"SC, Monkey 1003, 0.042 days","BQL (BQL—Below Quantitation Limit, <0.100 ng/mL)"
same,Clinical observations and dose site reactions,"cynomolgus monkey, single SC or IM injection, 5 mg parent/kg",All animals appeared normal at the time of each observation and no dose site reactions were observed
same,concentration at 0.021 days,"male, cynomolgus monkey, plasma, intramuscular, 20 mg/kg equivalent of EFdA, IM 20 mg/kg equivalent of EFdA, Mean, 0.021 days, read-out: Example 18 plasma concentrations",11.9 ng/mL
same,concentration at 0.042 days,"male, cynomolgus monkey, plasma, intramuscular, 20 mg/kg equivalent of EFdA, IM 20 mg/kg equivalent of EFdA, Mean, 0.042 days, read-out: Example 18 plasma concentrations",15 ng/mL
same,concentration at 0.125 days,"male, cynomolgus monkey, plasma, intramuscular, 20 mg/kg equivalent of EFdA, IM 20 mg/kg equivalent of EFdA, Mean, read-out: Example 18 plasma concentrations",28.5 ng/mL
same,concentration at 0.208 days,"male, cynomolgus monkey, plasma, intramuscular, 20 mg/kg equivalent of EFdA, IM 20 mg/kg equivalent of EFdA, Mean, 0.208 days, read-out: Example 18 plasma concentrations",28.3 ng/mL
same,concentration at 0.292 days,"male, cynomolgus monkey, plasma, intramuscular, 20 mg/kg equivalent of EFdA, IM 20 mg/kg equivalent of EFdA, Mean, 0.292 days, read-out: Example 18 plasma concentrations",18.3 ng/mL
same,concentration at 1 days,"male, cynomolgus monkey, plasma, intramuscular, 20 mg/kg equivalent of EFdA, IM 20 mg/kg equivalent of EFdA, Mean, 1 days, read-out: Example 18 plasma concentrations",4.49 ng/mL
same,concentration at 2 days,"male, cynomolgus monkey, plasma, intramuscular, 20 mg/kg equivalent of EFdA, IM 20 mg/kg equivalent of EFdA, Mean, 2 days, read-out: Example 18 plasma concentrations",0.52 ng/mL
same,concentration at 3 days,"male, cynomolgus monkey, plasma, intramuscular, 20 mg/kg equivalent of EFdA, IM 20 mg/kg equivalent of EFdA, Mean, 3 days, read-out: Example 18 plasma concentrations",0.505 ng/mL
same,concentration at 8 days,"male, cynomolgus monkey, plasma, intramuscular, 20 mg/kg equivalent of EFdA, IM 20 mg/kg equivalent of EFdA, Mean, 8 days, read-out: Example 18 plasma concentrations",0.187 ng/mL
same,concentration at 10 days,"male, cynomolgus monkey, plasma, intramuscular, 20 mg/kg equivalent of EFdA, IM 20 mg/kg equivalent of EFdA, Mean, 10 days, read-out: Example 18 plasma concentrations",0.173 ng/mL
same,concentration at 17 days,"male, cynomolgus monkey, plasma, intramuscular, 20 mg/kg equivalent of EFdA, IM 20 mg/kg equivalent of EFdA, Mean, 17 days, read-out: Example 18 plasma concentrations",0.145 ng/mL
same,concentration at 19 days,"male, cynomolgus monkey, plasma, intramuscular, 20 mg/kg equivalent of EFdA, IM 20 mg/kg equivalent of EFdA, Mean, 19 days, read-out: Example 18 plasma concentrations",0.124 ng/mL
same,concentration at 22 days,"male, cynomolgus monkey, plasma, intramuscular, 20 mg/kg equivalent of EFdA, IM 20 mg/kg equivalent of EFdA, Mean, 22 days, read-out: Example 18 plasma concentrations",0.13 ng/mL
same,concentration at 25 days,"male, cynomolgus monkey, plasma, intramuscular, 20 mg/kg equivalent of EFdA, IM 20 mg/kg equivalent of EFdA, Mean, 25 days, read-out: Example 18 plasma concentrations",0.151 ng/mL
same,concentration at 0.021 days,"male, cynomolgus monkey, plasma, intramuscular, 20 mg/kg equivalent of EFdA, IM 20 mg/kg equivalent of EFdA, Monkey 2001, 0.021 days, read-out: Example 18 plasma concentrations",21.8 ng/mL
same,concentration at 0.042 days,"male, cynomolgus monkey, plasma, intramuscular, 20 mg/kg equivalent of EFdA, IM 20 mg/kg equivalent of EFdA, Monkey 2001, 0.042 days, read-out: Example 18 plasma concentrations",29.2 ng/mL
same,concentration at 0.125 days,"male, cynomolgus monkey, plasma, intramuscular, 20 mg/kg equivalent of EFdA, IM 20 mg/kg equivalent of EFdA, Monkey 2001, read-out: Example 18 plasma concentrations",53.7 ng/mL
